pKd: −log10 of the molar value. Read-outs that look alike come from different tables or passages of the source.
Columns and labels:
Cytotoxicity MTT assay = type: cell-based, Human; details: human, HEK 293 cells, read-out: cell viability
Description: (§1) In vitro cytotoxicity studies were performed for DT(Ch)2 in the concentration range of 0.5–50 μg/mL against HEK 293 cell lines seeded in 96-well plates. The experimental procedure followed was in accordance with the previously reported literature ([32]). […] Cell cultures were grown in DMEM (Dulbecco’s modified eagle medium, high glucose) and the culture was supplemented with 1% penicillin streptomycin and 10% FBS (fetal bovine serum). The cells were incubated with different compound concentrations in a 5% CO2 incubator at 37°C. Following the addition of MTT [3-(4,5-dimethylthiazol-2-yl)-2,5-diphenyl-2H-tetrazolium bromide] to each cell (100 μL), the systems were incubated for an additional 4 h. The cell viability was reported in accordance with the mitochondrial activity measured via absorbance at 570 nm. The experiments were performed in triplicates.

HEK 293 cells = assay: Cytotoxicity MTT assay; type: cell-based, Human; details: 0.5–50 μg/mL, after 48 h of incubation
Description: as §1

Hemolysis assay = type: cell-based; details: human, red blood cells (washed RBC pellet resuspended in PBS), pH 7.4; RBCs, 0.125–2 mg/mL of ligand
Description: In accordance with the previous literature, heparinized blood from healthy volunteers was used for the hemolysis assay ([33]). Blood serum was separated by centrifugation and the obtained RBC pellet was washed with PBS (pH = 7.4) repeatedly. The pellet was finally resuspended in PBS and added in equal amounts to different vials. Similarly, varying concentrations of the ligand in equal volume were incubated with the RBC pellet in the ratio of 8:2 at 37°C. The Triton X-100 and phosphate buffer saline as positive and negative control, respectively, were also incubated with RBCs under similar conditions. A total of 100 μL of solvent was centrifuged and removed at each time point: 15 min, 1, 2, 4, and 24 h. The absorbance of the supernatant was measured at 541 nm wavelength in a 96-well plate by a Synergy 2 Multi-Mode Reader (BioTek Instruments, United States). The experiments were carried out in triplicates and the extent of hemolysis was calculated according to the following formula:
Hemolysisratio=(λ(test)-λ(negativecontrol))/(λ(positivecontrol)-λ(negativecontrol))×100%

[1] = cited from earlier work
Aβ aggregates = details: cited from earlier work

In the case of `CN(C)c1ccc(/C=C/C(=O)c2ccc(OCCNC(=O)CN(CCN(CCN(CC(=O)O)CC(=O)NCCOc3ccc(C(=O)/C=C/c4ccc(N(C)C)cc4)cc3)CC(=O)O)CC(=O)O)cc2)cc1` [DT(Ch)2, 6,9-bis(carboxymethyl)-14-(4-[(E)-3-(4-(dimethylamino)phenyl)acryloyl]phenoxy)-3-(2-[(2-(4-[(E)-3-(4-(dimethylamino)phenyl)acryloyl]phenoxy)ethyl)amino]-2-oxoethyl)-11-oxo-3,6,9,12-tetraazatetradecanoic acid], the viability (Cytotoxicity MTT assay; throughout the concentration range and observation time) was ~85%, the viability (Cytotoxicity MTT assay; up to 24 h) was 88 to 95% and the “toxicity (MTT assay)” value (HEK 293 cells) was < 17%. The hemolysis (Hemolysis assay) was < 5%.

For `CNc1ccc(-c2nc3ccc(O)cc3s2)cc1` [PiB, Pittsburgh compound B], the “ratio of brain2min/brain30min” value [1] is listed as 12.

For `O=C([O-])CN(CCN(CC(=O)[O-])CC(=O)[O-])CCN(CC(=O)[O-])CC(=O)[O-].[99Tc+4]` [^99mTc–DTPA], the brain uptake ([1]; after 30 min, known value, no reference given) is listed as 0.04%.

For `CN(C)c1ccc(C=CC(=O)c2ccc(I)cc2)cc1` [^125I-DMIC], the pKd (Aβ aggregates) is listed as 8.38.

Reference: article PMC9249127, “Bio-Evaluation of ^99mTc-Labeled Homodimeric Chalcone Derivative as Amyloid-β-Targeting Probe” (Frontiers in Medicine, 2022)
